Data from ChEMBL document CHEMBL1150891, “Isolation of 1-carboxymethylnicotinic acid from the marine sponge anthosigmella cf. raromicrosclera As a cysteine protease inhibitor1” (J Nat Prod, 1998).

Target: T1, Papain (Carica papaya, UniProt P00784)
T1 sequence (P00784 whole entry): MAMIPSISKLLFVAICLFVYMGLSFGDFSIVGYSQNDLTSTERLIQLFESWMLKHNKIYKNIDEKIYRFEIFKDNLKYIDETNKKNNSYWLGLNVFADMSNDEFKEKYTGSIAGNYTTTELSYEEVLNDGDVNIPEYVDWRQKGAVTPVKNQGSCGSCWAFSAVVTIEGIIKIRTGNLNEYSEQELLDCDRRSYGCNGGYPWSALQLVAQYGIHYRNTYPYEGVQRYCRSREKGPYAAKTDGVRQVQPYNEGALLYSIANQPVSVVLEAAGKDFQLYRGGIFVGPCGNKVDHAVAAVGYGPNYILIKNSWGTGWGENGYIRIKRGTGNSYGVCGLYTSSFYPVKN
Assay: Inhibition of Carica papaya papain

IC50: 442 µM
Compound: O=C([O-])C[n+]1cccc(C(=O)O)c1
